Laboratory results taken from ChEMBL document CHEMBL1152373, “Synthesis and antimultidrug resistance evaluation of icariin and its derivatives” (Bioorg Med Chem Lett, 2009).
Calls of active or inactive are those of the source. No cut-off for these calls is given here.

test system: not listed separately; experiment: Cytotoxicity against human MCF7/ADR cells after 72 hrs by MTT assay; assay type: functional, cell-based; settings: NCI/ADR-RES

Row | Compound | IC50
1 | COc1ccc(-c2oc3c4c(cc(O)c3c(=O)c2O)OC(C)(C)CC4)cc1 | > 100 µM
2 | COc1ccc(-c2oc3c(CC=C(C)C)c(O)cc(O)c3c(=O)c2O[C@@H]2O[C@@H](C)[C@H](O)[C@@H](O)[C@H]2O)cc1 | > 100 µM
3 | COc1ccc(-c2oc3c(CC=C(C)C)c(O[C@@H]4O[C@H](CO)[C@@H](O)[C@H](O)[C@H]4O)cc(O)c3c(=O)c2O)cc1 | 60.8 µM
4 | COc1ccc(-c2oc3c4c(cc(O)c3c(=O)c2OS(N)(=O)=O)OC(C)(C)CC4)cc1 | 92.1 µM
5 | COc1ccc(-c2oc3c4c(cc(O)c3c(=O)c2OS(C)(=O)=O)OC(C)(C)CC4)cc1 | 55 µM

test system: NCI/ADR-RES; experiment: Reversal of P-gp-mediated multidrug resistance in human MCF7/ADR cells assessed as enhancement in cytotoxicity of adriamycin; assay type: cell-based; settings: not given

Row | Compound | fold change (FC)
6 | COc1ccc(-c2oc3c4c(cc(O)c3c(=O)c2O)OC(C)(C)CC4)cc1 | 10

test system: NCI/ADR-RES; experiment: Reversal of P-gp-mediated multidrug resistance in human MCF7/ADR cells assessed as assessed as increase in intracellular adriamycin accumulation at 5 uM incubated 2 hrs before adriamycin challenge by spectrophotometry; assay type: cell-based; settings: not given

Row | Compound | Activity
7 | COc1ccc(-c2oc3c4c(cc(O)c3c(=O)c2O)OC(C)(C)CC4)cc1 | Active
8 | COc1ccc(-c2oc3c(CC=C(C)C)c(O)cc(O)c3c(=O)c2O[C@@H]2O[C@@H](C)[C@H](O)[C@@H](O)[C@H]2O)cc1 | Active
9 | COc1ccc(-c2oc3c(CC=C(C)C)c(O[C@@H]4O[C@H](CO)[C@@H](O)[C@H](O)[C@H]4O)cc(O)c3c(=O)c2O)cc1 | Active
10 | COc1ccc(-c2oc3c4c(cc(O)c3c(=O)c2OS(N)(=O)=O)OC(C)(C)CC4)cc1 | Active
11 | COc1ccc(-c2oc3c4c(cc(O)c3c(=O)c2OS(C)(=O)=O)OC(C)(C)CC4)cc1 | Active

test system: MCF7; experiment: Reversal of P-gp-mediated multidrug resistance in human MCF7 cells assessed as assessed as increase in intracellular adriamycin accumulation at 5 uM incubated 2 hrs before adriamycin challenge by spectrophotometry; assay type: cell-based; settings: not given

Row | Compound | Activity
12 | COc1ccc(-c2oc3c4c(cc(O)c3c(=O)c2O)OC(C)(C)CC4)cc1 | inactive
13 | COc1ccc(-c2oc3c(CC=C(C)C)c(O)cc(O)c3c(=O)c2O[C@@H]2O[C@@H](C)[C@H](O)[C@@H](O)[C@H]2O)cc1 | inactive
14 | COc1ccc(-c2oc3c(CC=C(C)C)c(O[C@@H]4O[C@H](CO)[C@@H](O)[C@H](O)[C@H]4O)cc(O)c3c(=O)c2O)cc1 | inactive
15 | COc1ccc(-c2oc3c4c(cc(O)c3c(=O)c2OS(N)(=O)=O)OC(C)(C)CC4)cc1 | inactive
16 | COc1ccc(-c2oc3c4c(cc(O)c3c(=O)c2OS(C)(=O)=O)OC(C)(C)CC4)cc1 | inactive

test system: NCI/ADR-RES; experiment: Reversal of P-gp-mediated multidrug resistance in human MCF7/ADR cells assessed as modulation factor, ratio of adriamycin IC50 without drug to adriamycin IC50 with drug at 1 uM after 72 hrs by MTT assay; assay type: cell-based; settings: not given

Row | Compound | Ratio IC50
17 | COc1ccc(-c2oc3c4c(cc(O)c3c(=O)c2O)OC(C)(C)CC4)cc1 | 2.33
18 | COc1ccc(-c2oc3c(CC=C(C)C)c(O)cc(O)c3c(=O)c2O[C@@H]2O[C@@H](C)[C@H](O)[C@@H](O)[C@H]2O)cc1 | 1.28
19 | COc1ccc(-c2oc3c(CC=C(C)C)c(O[C@@H]4O[C@H](CO)[C@@H](O)[C@H](O)[C@H]4O)cc(O)c3c(=O)c2O)cc1 | 1.41
20 | COc1ccc(-c2oc3c4c(cc(O)c3c(=O)c2OS(N)(=O)=O)OC(C)(C)CC4)cc1 | 1.42
21 | COc1ccc(-c2oc3c4c(cc(O)c3c(=O)c2OS(C)(=O)=O)OC(C)(C)CC4)cc1 | 1.89

test system: NCI/ADR-RES; experiment: Reversal of P-gp-mediated multidrug resistance in human MCF7/ADR cells assessed as modulation factor, ratio of adriamycin IC50 without drug to adriamycin IC50 with drug at 10 uM after 72 hrs by MTT assay; assay type: cell-based; settings: not given

Row | Compound | Ratio IC50
22 | COc1ccc(-c2oc3c4c(cc(O)c3c(=O)c2O)OC(C)(C)CC4)cc1 | 4.35
23 | COc1ccc(-c2oc3c(CC=C(C)C)c(O)cc(O)c3c(=O)c2O[C@@H]2O[C@@H](C)[C@H](O)[C@@H](O)[C@H]2O)cc1 | 1.39
24 | COc1ccc(-c2oc3c(CC=C(C)C)c(O[C@@H]4O[C@H](CO)[C@@H](O)[C@H](O)[C@H]4O)cc(O)c3c(=O)c2O)cc1 | 1.49
25 | COc1ccc(-c2oc3c4c(cc(O)c3c(=O)c2OS(N)(=O)=O)OC(C)(C)CC4)cc1 | 1.69
26 | COc1ccc(-c2oc3c4c(cc(O)c3c(=O)c2OS(C)(=O)=O)OC(C)(C)CC4)cc1 | 2.34

test system: NCI/ADR-RES; experiment: Reversal of P-gp-mediated multidrug resistance in human MCF7/ADR cells assessed as modulation factor, ratio of adriamycin IC50 without drug to adriamycin IC50 with drug at 25 uM after 72 hrs by MTT assay; assay type: cell-based; settings: not given

Row | Compound | Ratio IC50
27 | COc1ccc(-c2oc3c4c(cc(O)c3c(=O)c2O)OC(C)(C)CC4)cc1 | 10.1
28 | COc1ccc(-c2oc3c(CC=C(C)C)c(O)cc(O)c3c(=O)c2O[C@@H]2O[C@@H](C)[C@H](O)[C@@H](O)[C@H]2O)cc1 | 1.61
29 | COc1ccc(-c2oc3c(CC=C(C)C)c(O[C@@H]4O[C@H](CO)[C@@H](O)[C@H](O)[C@H]4O)cc(O)c3c(=O)c2O)cc1 | 1.62
30 | COc1ccc(-c2oc3c4c(cc(O)c3c(=O)c2OS(N)(=O)=O)OC(C)(C)CC4)cc1 | 3.65
31 | COc1ccc(-c2oc3c4c(cc(O)c3c(=O)c2OS(C)(=O)=O)OC(C)(C)CC4)cc1 | 2.71

test system: NCI/ADR-RES; experiment: Inhibition of MDR1 gene expression in human MCF7/ADR cells after 48 hrs by RT-PCR analysis; assay type: functional, cell-based; settings: not given

Row | Compound | Activity
32 | COc1ccc(-c2oc3c4c(cc(O)c3c(=O)c2O)OC(C)(C)CC4)cc1 | Active
33 | COc1ccc(-c2oc3c4c(cc(O)c3c(=O)c2OS(N)(=O)=O)OC(C)(C)CC4)cc1 | Active
34 | COc1ccc(-c2oc3c4c(cc(O)c3c(=O)c2OS(C)(=O)=O)OC(C)(C)CC4)cc1 | Active

target: T1, P-gp (ABCB1) (Homo sapiens, UniProt P08183); experiment: Inhibition of P-gp in human Caco-2 cells assessed as increase in influx permeability from apical to basolateral side at 50 uM after 120 mins; assay type: cell-based; settings: not given
T1 sequence (P08183 whole entry): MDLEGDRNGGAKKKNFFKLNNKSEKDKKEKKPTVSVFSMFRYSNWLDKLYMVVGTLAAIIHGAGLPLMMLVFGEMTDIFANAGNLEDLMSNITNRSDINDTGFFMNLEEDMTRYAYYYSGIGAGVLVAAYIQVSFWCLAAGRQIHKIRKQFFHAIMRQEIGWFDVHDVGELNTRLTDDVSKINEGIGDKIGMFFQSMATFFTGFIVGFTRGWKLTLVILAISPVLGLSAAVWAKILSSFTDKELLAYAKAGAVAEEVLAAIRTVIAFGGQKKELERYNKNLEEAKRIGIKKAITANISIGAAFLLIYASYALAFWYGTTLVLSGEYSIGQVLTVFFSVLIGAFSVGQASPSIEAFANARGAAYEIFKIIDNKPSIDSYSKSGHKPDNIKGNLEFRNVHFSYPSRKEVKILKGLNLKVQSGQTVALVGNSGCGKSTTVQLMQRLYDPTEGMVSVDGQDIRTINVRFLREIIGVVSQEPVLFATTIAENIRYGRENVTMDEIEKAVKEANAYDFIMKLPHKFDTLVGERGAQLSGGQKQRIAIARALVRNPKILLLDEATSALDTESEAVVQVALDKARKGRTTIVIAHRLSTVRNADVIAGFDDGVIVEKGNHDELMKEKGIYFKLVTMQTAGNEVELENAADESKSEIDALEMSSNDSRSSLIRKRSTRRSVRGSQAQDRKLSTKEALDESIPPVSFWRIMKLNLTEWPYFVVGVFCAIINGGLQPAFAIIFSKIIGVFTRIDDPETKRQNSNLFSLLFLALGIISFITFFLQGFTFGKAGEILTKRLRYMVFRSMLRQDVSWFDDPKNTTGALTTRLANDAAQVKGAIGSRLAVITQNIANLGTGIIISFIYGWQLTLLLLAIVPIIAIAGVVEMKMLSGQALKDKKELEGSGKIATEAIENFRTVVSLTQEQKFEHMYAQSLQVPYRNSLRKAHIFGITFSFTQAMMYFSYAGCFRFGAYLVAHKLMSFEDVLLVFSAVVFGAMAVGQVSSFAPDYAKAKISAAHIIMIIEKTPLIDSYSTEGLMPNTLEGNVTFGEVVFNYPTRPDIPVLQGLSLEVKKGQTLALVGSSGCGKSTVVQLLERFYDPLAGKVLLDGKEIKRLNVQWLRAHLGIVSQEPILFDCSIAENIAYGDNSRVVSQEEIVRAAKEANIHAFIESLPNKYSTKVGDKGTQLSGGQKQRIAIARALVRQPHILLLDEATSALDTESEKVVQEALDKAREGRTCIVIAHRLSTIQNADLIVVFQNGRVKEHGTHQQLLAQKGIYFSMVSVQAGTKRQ

Row | inhibition at 2 h, 50 µM | Compound
35 | 39.6% | COc1ccc(-c2oc3c4c(cc(O)c3c(=O)c2O)OC(C)(C)CC4)cc1

target: T1, P-gp (ABCB1); experiment: Inhibition of P-gp in human Caco-2 cells assessed as decrease in efflux permeability from basolateral to apical side at 50 uM after 120 mins; assay type: cell-based; settings: not given

Row | inhibition at 2 h, 50 µM | Compound
36 | 39.6% | COc1ccc(-c2oc3c4c(cc(O)c3c(=O)c2O)OC(C)(C)CC4)cc1
